Experimental data: PubChem BioAssay AID1259411 (Chemical Carcinogenesis Research Information System (CCRIS), 2018)
Calls of active or inactive are those of the source. How the calls were made is not given here.

Test system: rodent carcinogenicity bioassays, tumor incidence
Assay: CCRIS carcinogenicity studies
In short: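 NCI-built, expert-reviewed records of carcinogenicity and related test outcomes (mutagenicity, tumor promotion/inhibition) compiled from published and report sources, historical span 1985-2011, not updated.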

[1] = Species: RAT, Route: ORAL, Tumor Site: Type of Lesion: LIVER
[2] = Species: RAT, Route: SUBCUTANEOUS, Tumor Site: Type of Lesion: INJECTION SITE

CC(=O)N(O)c1ccc2c(c1)Cc1ccccc1-2
carcinogen call (Species: GUINEA PIG, Strain/Sex: FEMALE, Route: INTRAPERITONEAL, Dose: 1.5 G/100 G SUSPENDED IN SALINE-GUM ACACIA 3/WK FOR 27 MO, Tumor Site: Type of Lesion: INJECTION SITE: SARCOMA): active; positive
carcinogen call (Species: GUINEA PIG, Strain/Sex: MALE, Route: ORAL, Dose: 0.024-0.064% IN DIET (AMOUNT VARIED BECAUSE OF TOXICITY), Tumor Site: Type of Lesion: INTESTINES (SMALL): ADENOCARCINOMA): active; positive
carcinogen call (Species: HAMSTER, Strain/Sex: MALE, Route: INTRAPERITONEAL, Dose: 1.5 G/100 G SUSPENDED IN SALINE-GUM ACACIA 3/WK FOR 6-8 MO, Tumor Site: Type of Lesion: PERITONEAL CAVITY: FIBROSARCOMA): active; positive
carcinogen call (Species: HAMSTER, Strain/Sex: MALE, Route: ORAL, Dose: 0.032% IN DIET AS 5-10 G OF GLUCOSE TRITURATE/KG DIET FOR 7.5 MO, Tumor Site: Type of Lesion: FORESTOMACH: PAPILLOMA, SQUAMOUS CELL CARCINOMA, LIVER: BENIGN TUMOR): active; positive
carcinogen call (Species: MOUSE, Strain/Sex: B6C3F1/MALE, Route: INTRAPERITONEAL, Dose: 0, 0.025, 0.08, 0.23 UMOL/G BW IN 5 µL/G BW OF 80% DMSO ONCE AT 12 D OF AGE (STUDY DURATION: 9 MO), Dose: 0, 0.025, 0.08, 0.23 UMOL/G BW IN 5 µL/G BW OF 80% DMSO ONCE AT 12 D OF AGE (STUDY DURATION: 9 MO), Tumor Site: Type of Lesion: LIVER: HEPATOMA): active; positive
carcinogen call (Species: MOUSE, Strain/Sex: B6C3F2 (BRACHYMORPHOIC)/MALE, Route: INTRAPERITONEAL, Dose: 0, 0.025, 0.08, 0.23 UMOL/G BW IN 5 µL/G BW OF 80% DMSO ONCE AT 12 D OF AGE (STUDY DURATION: 9 MO), Dose: 0, 0.025, 0.08, 0.23 UMOL/G BW IN 5 µL/G BW OF 80% DMSO ONCE AT 12 D OF AGE (STUDY DURATION: 9 MO), Tumor Site: Type of Lesion: LIVER: HEPATOMA): active; positive
carcinogen call (Species: RABBIT, Strain/Sex: NZW/MALE,FEMALE, Route: INTRAPERITONEAL, Dose: 32.3 MG/KG IN 3 ML/KG SALINE 3/WK FOR 40 WK, Tumor Site: Type of Lesion: PERITONEAL CAVITY: SARCOMA): active; positive
carcinogen call (Species: RAT, Strain/Sex: CRBL/FEMALE, Route: INTRAPERITONEAL, Dose: 4.O MG/100 G 3/WK FOR 2 WK THEN 3.0 MG/100 G 3/WK FOR 2 WK, Tumor Site: Type of Lesion: MAMMARY GLAND: BENIGN TUMOR, NEOPLASM): active; positive
carcinogen call (Species: RAT, Strain/Sex: F344/FEMALE, Route: INTRAPERITONEAL, Dose: 0.10 MMOL/RAT (TOTAL DOSE), Tumor Site: Type of Lesion: LIVER: CHOLANGIOMA, CARCINOMA): active; positive
carcinogen call (Species: RAT, Strain/Sex: F344/MALE, Route: ORAL, Dose: 160 UG/G IN DIET FOR 12 WK, Tumor Site: Type of Lesion: LIVER: HEPATOMA): active; positive
carcinogen call (Species: RAT, Strain/Sex: HOLTZMAN/FEMALE, Route: INTRAPERITONEAL, Dose: 2-AAF EQUIV OF 2.5 MG SUSPENDED IN SALINE-GUM ACACIA 3/WK FOR 3 WK THEN 3.5 MG FOR 2 WK THEN 3.0 MG FOR 9 WK, Tumor Site: Type of Lesion: MAMMARY GLAND: NEOPLASM, PERITONEAL CAVITY: SARCOMA): active; positive
carcinogen call (Species: RAT, Strain/Sex: HOLTZMAN/FEMALE, Route: INTRAPERITONEAL, Dose: 2-AAF EQUIV OF 4 MG IN 0.4 ML SALINE-GUM ACACIA 3/WK FOR 4 WK, Tumor Site: Type of Lesion: MAMMARY GLAND: NEOPLASM): active; positive
carcinogen call (Species: RAT, Strain/Sex: HOLTZMAN/FEMALE, Route: ORAL, Dose: 0.032% IN GRAIN DIET FOR 4 MO, Tumor Site: Type of Lesion: MAMMARY GLAND: NEOPLASM, FORESTOMACH: PAPILLOMA, CARCINOMA, EAR (DUCT): NEOPLASM, INTESTINES (SMALL), Tumor Site: Type of Lesion: MAMMARY GLAND: NEOPLASM, FORESTOMACH: PAPILLOMA, CARCINOMA, EAR (DUCT): NEOPLASM, INTESTINES (SMALL)): active; positive
carcinogen call (Species: RAT, Strain/Sex: HOLTZMAN/MALE, Route: INTRAPERITONEAL, Dose: 2-AAF EQUIV OF 2.5 MG SUSPENDED IN SALINE-GUM ACACIA 3/WK FOR 3 WK THEN 3.5 MG 3/WK FOR 3 WK THEN 3.0 MG 3/WK FOR 9 WK, Tumor Site: Type of Lesion: EAR (DUCT): NEOPLASM, PERITONEAL CAVITY: SARCOMA, INTESTINES (SMALL): NEOPLASM, Tumor Site: Type of Lesion: EAR (DUCT): NEOPLASM, PERITONEAL CAVITY: SARCOMA, INTESTINES (SMALL): NEOPLASM): active; positive
carcinogen call (Species: RAT, Strain/Sex: HOLTZMAN/MALE, Route: ORAL, Dose: 0.032% IN GRAIN DIET FOR 3 MO, Tumor Site: Type of Lesion: LIVER: NEOPLASM, FORESTOMACH: PAPILLOMA, CARCINOMA): active; positive
carcinogen call (Species: RAT, Strain/Sex: HOLTZMAN/MALE, Route: SUBCUTANEOUS, Dose: 3.2 MG IN 0.2 ML TRICAPRYLIN 2/WK FOR 4 WK, Tumor Site: Type of Lesion: INJECTION SITE: SARCOMA, EAR (DUCT): CARCINOMA): active; positive
carcinogen call (Species: RAT, Strain/Sex: NIHBL/MALE,FEMALE, Route: ORAL, Dose: 80 UG/G IN DIET FOR 64 WK, Tumor Site: Type of Lesion: LIVER: HEPATOMA, CHOLANGIOMA): active; positive
carcinogen call (Species: RAT, Strain/Sex: SPRAGUE-DAWLEY/FEMALE, Route: INTRAPERITONEAL, Dose: 0.10, 0.17 MMOL/RAT (TOTAL DOSE), Tumor Site: Type of Lesion: MAMMARY GLAND: ADENOCARCINOMA): active; positive
carcinogen call (Species: RAT, Strain/Sex: STRAIN-CD/FEMALE, Route: INTRAPERITONEAL, Dose: 0, 67 UMOL/KG BW IN DMSO 3/WK FOR 4 WK (STUDY DURATION: 61 WK), Tumor Site: Type of Lesion: MAMMARY GLAND: ADENOCARCINOMA, HEMATOPOIETIC SYSTEM: LEUKEMIA, LYMPHOMA): active; positive
carcinogen call (Species: RAT, Strain/Sex: STRAIN-CD/FEMALE, Route: ORAL, Dose: 0.025% IN GRAIN DIET FOR 4 MO, Tumor Site: Type of Lesion: MAMMARY GLAND: CARCINOMA, LIVER: BENIGN TUMOR, NEOPLASM, EAR (DUCT): CARCINOMA, Tumor Site: Type of Lesion: MAMMARY GLAND: CARCINOMA, LIVER: BENIGN TUMOR, NEOPLASM, EAR (DUCT): CARCINOMA): active; positive

CN(C)c1ccc(C(=N)c2ccc(N(C)C)cc2)cc1
carcinogen call (Species: HUMAN, Route: ORAL, INHALATION, DERMAL, Tumor Site: Type of Lesion: URINARY BLADDER): active; positive
carcinogen call (Species: MOUSE, Route: ORAL, Tumor Site: Type of Lesion: LIVER, LYMPHATIC SYSTEM: LYMPHOMA): active; positive
carcinogen call [1]: active; positive
carcinogen call [2]: active; positive

CC1(C)[C@H](C(=O)O[C@H](C#N)c2cccc(Oc3ccccc3)c2)[C@@H]1C(Br)C(Br)(Br)Br (some centres undefined)
carcinogen call (Species: Mouse, Strain/Sex: Not reported by DPR/Female (60-80/Group), Route: Gavage, Dose: 0, 0.75, 3.0, 10.0 mg/kg/day in corn oil for 104 wk, Dose: 0, 0.75, 3.0, 10.0 mg/kg/day in corn oil for 104 wk): inactive; negative
carcinogen call (Species: Mouse, Strain/Sex: Not reported by DPR/Male (60-80/Group), Route: Gavage, Dose: 0, 0.75, 3.0, 10.0 mg/kg/day in corn oil for 104 wk, Dose: 0, 0.75, 3.0, 10.0 mg/kg/day in corn oil for 104 wk): inactive; negative
carcinogen call (Species: Rat, Strain/Sex: Not reported by DPR/Female (60-80/Group), Route: Gavage, Dose: 0, 0.75, 3.0, 12.0 mg/kg/day in corn oil for 104 wk, Dose: 0, 0.75, 3.0, 12.0 mg/kg/day in corn oil for 104 wk): inactive; negative
carcinogen call (Species: Rat, Strain/Sex: Not reported by DPR/Male (60-80/Group), Route: Gavage, Dose: 0, 0.75, 3.0, 12.0 mg/kg/day in corn oil for 104 wk, Dose: 0, 0.75, 3.0, 12.0 mg/kg/day in corn oil for 104 wk): inactive; negative

COc1cc2c(c3oc4cccc(O)c4c(=O)c13)[C@@H]1C=CO[C@@H]1O2
carcinogen call (Species: MOUSE, Route: ORAL, Tumor Site: Type of Lesion: LUNG): active; positive
carcinogen call (Species: MOUSE, Strain/Sex: DBF1/FEMALE, Route: ORAL, Dose: 0, 30, 120 PPM IN DIET FOR 55 OR 51 WK, STUDY DURATION: 73 WK, Dose: 0, 30, 120 PPM IN DIET FOR 55 OR 51 WK, STUDY DURATION: 73 WK, Tumor Site: Type of Lesion: LIVER: HEMANGIOENDOTHELIOMA, ANGIOSARCOMA, LUNG: ADENOMA, INTEGUMENTARY SYSTEM (SUBCUTANEOUS TISSUE): ANGIOSARCOMA, Tumor Site: Type of Lesion: LIVER: HEMANGIOENDOTHELIOMA, ANGIOSARCOMA, LUNG: ADENOMA, INTEGUMENTARY SYSTEM (SUBCUTANEOUS TISSUE): ANGIOSARCOMA): active; positive
carcinogen call (Species: RAT, Route: DERMAL, Tumor Site: Type of Lesion: INTEGUMENTARY SYSTEM (SKIN)): active; positive
carcinogen call [1]: active; positive
carcinogen call [2]: active; positive

CNC(=O)Oc1ccc2c(c1)[C@]1(C)CCN(C)[C@@H]1N2C
carcinogen call (Species: RAT, Strain/Sex: SPRAGUE-DAWLEY/FEMALE (70/GROUP), Route: SUBCUTANEOUS (INGUINAL REGION), Dose: 0, 3.3 UG/KG BW, 2/D FOR 5 D (STUDY DURATION: 28 MO), Dose: 0, 3.3 UG/KG BW, 2/D FOR 5 D (STUDY DURATION: 28 MO), Tumor Site: Type of Lesion: MAMMARY GLAND: TUMOR): active; positive
